Here are results for 28 compounds from patent US9850216B2 (H. LEE MOFFITT CANCER CENTER AND RESEARCH INSTITUTE, INC., priority 2013, dated 2017).

Several values for one entry are separate records, joined by “and”; a condition that tells them apart may be missing. Equal values may be shown once. Where a name gives a salt, the structure may show the parent alone. Read-outs that look alike come from different tables or passages of the source.

Data set [1] deals with T1, ACK1 (Homo sapiens, UniProt Q07912). In words: ACK1 ELISA: phosphorylation of AKT-derived peptide. The conditions noted are these: 10 μM; for % Inhibition at 10 μM (ELISA) / inhibition at 10 µM: Table 1, replicate values listed; for inhibition at 10 µM: read-out: % Inhibition at 10 μM (ELISA). It counts as biochemical. On the technique in general: In an ELISA, binding on a coated surface is turned into a signal by an enzyme label.

In data set [2] the target is T1, ACK1. Description: 32P Hotspot assay (Reaction Biology), ACK1 IC50. It counts as biochemical. The protocol: 8 compounds were tested against […], ACK1, Src and ALK in various combinations. […] Reactions were carried out at 10 μM ATP.
The mark [3] stands for this setting: Table 1, unit inferred, (RB) = Reaction Biology, replicates listed, read-out: IC50.

T1 sequence (Q07912 whole entry): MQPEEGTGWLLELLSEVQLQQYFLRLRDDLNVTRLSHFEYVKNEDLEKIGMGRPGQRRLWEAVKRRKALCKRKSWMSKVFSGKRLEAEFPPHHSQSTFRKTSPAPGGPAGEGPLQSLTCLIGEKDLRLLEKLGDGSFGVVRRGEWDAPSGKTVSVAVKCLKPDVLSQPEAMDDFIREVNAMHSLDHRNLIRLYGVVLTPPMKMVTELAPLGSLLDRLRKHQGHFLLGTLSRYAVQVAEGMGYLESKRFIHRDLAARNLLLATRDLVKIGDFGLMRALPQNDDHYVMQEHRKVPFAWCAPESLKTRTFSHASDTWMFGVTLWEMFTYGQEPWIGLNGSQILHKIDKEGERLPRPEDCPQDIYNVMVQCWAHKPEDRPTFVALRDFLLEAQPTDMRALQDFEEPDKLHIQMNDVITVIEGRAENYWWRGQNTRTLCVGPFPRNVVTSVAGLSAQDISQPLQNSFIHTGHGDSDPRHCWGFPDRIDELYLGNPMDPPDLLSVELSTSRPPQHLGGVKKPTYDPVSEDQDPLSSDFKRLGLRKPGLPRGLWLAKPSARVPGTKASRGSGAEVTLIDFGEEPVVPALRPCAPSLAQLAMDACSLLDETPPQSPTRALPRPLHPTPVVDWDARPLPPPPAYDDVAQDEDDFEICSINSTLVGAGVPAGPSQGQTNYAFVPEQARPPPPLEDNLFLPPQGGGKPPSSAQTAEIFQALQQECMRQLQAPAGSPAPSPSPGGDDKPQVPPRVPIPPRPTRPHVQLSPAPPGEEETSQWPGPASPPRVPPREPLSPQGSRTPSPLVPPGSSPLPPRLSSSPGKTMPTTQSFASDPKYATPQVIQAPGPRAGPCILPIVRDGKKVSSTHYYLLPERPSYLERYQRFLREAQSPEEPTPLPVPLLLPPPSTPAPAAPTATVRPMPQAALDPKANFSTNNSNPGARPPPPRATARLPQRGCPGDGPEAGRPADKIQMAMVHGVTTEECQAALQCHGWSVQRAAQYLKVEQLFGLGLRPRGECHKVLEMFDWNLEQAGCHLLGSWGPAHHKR

As for `Clc1cnc(Nc2ccc(N3CCNCC3)cc2)nc1NCC1CCCO1` (stereo not drawn) [Compound 9a], the “% Inhibition @ 10 μM (ELISA)” value on ACK1 [1] (Table 2, library 9) came out at 82 ± 12.7%. Further, on ACK1 [2] (32P hotspot / enzymatic assay, read-out: ACK1 IC50), the IC50 – broadly, the point on the concentration scale where inhibition reaches its midpoint – was found to be 8.1e-08 M.
With `Clc1cnc(Nc2ccc(N3CCOCC3)cc2)nc1NCC1CCCO1` (stereo not drawn) [Compound 9c], the half-inhibitory concentration (IC50) at ACK1 [2] (Table 2, read-out: IC50 (32P Hotspot assay)) was determined as 6.75e-08 M.
For the compound `Clc1cnc(Nc2ccc(N3CCOCC3)cc2)nc1NC[C@H]1CCCO1` [DZ1-064], the concentration for half-maximal inhibition (IC50) on ACK1 [2] (setting [3]) is 4.65e-08 M.
On the same count and under the same terms, the result for `Clc1cnc(Nc2ccc(N3CCOCC3)cc2)nc1NC[C@@H]1CCCO1` [DZ1-074] reads 7.41e-08 M; that for `Cc1cc(Nc2ncc(Cl)c(Nc3ccccc3S(=O)(=O)C(C)C)n2)c(OC(C)C)cc1C1CCNCC1` [LDK, reference compound], 8.87e-08 M.
`CCS(=O)(=O)c1ccccc1Nc1nc(Nc2ccc(OC)cc2)ncc1C(=O)Nc1c(F)cccc1Cl` [YL7-058-1, N-(2-chloro-6-fluorophenyl)-4-(2-(ethylsulfonyl)phenylamino)-2-(4-methoxyphenylamino)pyrimidine-5-carboxamide]: the melting point (as a rule, the temperature, or range, at which the solid turns liquid) lay in the range of 263 to 265 °C. Further, the % Inhibition – broadly, the change of the read-out against control, counted positive when it falls – at 10 μM (ELISA) on ACK1 [1] is −6% and 0%.
For `CCS(=O)(=O)c1ccccc1Nc1nc(Nc2ccc(O)cc2)ncc1C(=O)Nc1c(F)cccc1Cl` [YL7-058-2, N-(2-chloro-6-fluorophenyl)-4-(2-(ethylsulfonyl)phenylamino)-2-(4-hydroxyphenylamino)pyrimidine-5-carboxamide], the melting point was 201 °C (dec.). The “% Inhibition at 10 μM (ELISA)” value at ACK1 [1] was 68% and 43%.
Turning to `CCSc1ccccc1Nc1nc(Nc2ccc(OC)cc2)ncc1C(=O)Nc1c(F)cccc1Cl` [YL7-058-3, N-(2-chloro-6-fluorophenyl)-4-(2-(ethylthio)phenylamino)-2-(4-methoxyphenylamino)pyrimidine-5-carboxamide], the melting point was 250 °C (dec.). Also, the “% Inhibition at 10 μM (ELISA)” value on ACK1 [1] is 1% and 0%.
With `CCSc1ccccc1Nc1nc(Nc2ccc(O)cc2)ncc1C(=O)Nc1c(F)cccc1Cl` [YL7-058-4, N-(2-chloro-6-fluorophenyl)-4-(2-(ethylthio)phenylamino)-2-(4-hydroxyphenylamino)pyrimidine-5-carboxamide], the melting point is 233 °C (dec.). Also, on ACK1 [1], the “% Inhibition at 10 μM (ELISA)” value was 24% and 47%.
`CC(C)S(=O)(=O)c1ccccc1Nc1nc(Nc2ccc(N3CCOCC3)cc2)ncc1C(=O)Nc1c(F)cccc1Cl` [YL7-097-1, N-(2-chloro-6-fluorophenyl)-4-(2-(isopropylsulfonyl)phenylamino)-2-(4-morpholinophenylamino)pyrimidine-5-carboxamide]: the melting point is 220 °C (dec.). Further, at ACK1 [1], the “% Inhibition at 10 μM (ELISA)” value worked out at 65% and the inhibition (usually the drop in the measured response relative to a control, in per cent) at 10 µM amounted to 85%.
The matching figures for `CC(C)S(=O)(=O)c1ccccc1Nc1nc(Nc2ccc(S(N)(=O)=O)cc2)ncc1C(=O)Nc1c(F)cccc1Cl` [YL7-100-1]: 192 °C (dec.), 6% and 8%.
`O=C(Nc1c(F)cccc1Cl)c1cnc(Cl)nc1NCC1CCCO1` (stereo not drawn) [YL7-102, 2-Chloro-N-(2-chloro-6-fluorophenyl)-4-((tetrahydrofuran-2-yl)methylamino)pyrimidine-5-carboxamide]: the melting point was 142 °C (dec.). Moreover, the inhibition at 10 µM at ACK1 [1] was found to be 0%.
Take `COc1ccc(CNc2ncc(C(=O)Nc3c(F)cccc3Cl)c(Nc3ccccc3S(=O)(=O)C(C)C)n2)cc1` [YL7-106-1, N-(2-chloro-6-fluorophenyl)-4-(2-(isopropylsulfonyl)phenylamino)-2-(4-methoxybenzylamino)pyrimidine-5-carboxamide]: the melting point was 227 °C (dec.). Further, the “% Inhibition at 10 μM (ELISA)” value at ACK1 [1] is 14% and 0%.
Regarding `CC(C)S(=O)(=O)c1ccccc1Nc1nc(Nc2ccc(C(N)=O)cc2)ncc1C(=O)Nc1c(F)cccc1Cl` [YL7-106-3, 2-(4-Carbamoylphenylamino)-N-(2-chloro-6-fluorophenyl)-4-(2-(isopropylsulfonyl)phenylamino)pyrimidine-5-carboxamide], the melting point is 230 °C (dec.). At ACK1 [1], the “% Inhibition at 10 μM (ELISA)” value is 43% and the inhibition at 10 µM is 51%.
Turning to `Cl.Oc1ccc(Nc2ncc(Br)c(NCC3CCCO3)n2)cc1Cl` (stereo not drawn) [YL7-172-1, 4-(5-Bromo-4-((tetrahydrofuran-2-yl)methylamino)pyrimidin-2-ylamino)-2-chlorophenol hydrochloride], the melting point was 193 °C (dec.). The “% Inhibition at 10 μM (ELISA)” value on ACK1 [1] (hydrochloride) was 75% and 55% and 35%.
As for `Cl.Fc1cccc(Nc2ncc(Br)c(NCC3CCCO3)n2)c1` (stereo not drawn) [YL7-172-3, 5-Bromo-N2-(3-fluorophenyl)-N4-((tetrahydrofuran-2-yl)methyl)pyrimidine-2,4-diamine hydrochloride], the melting point was 194 to 197 °C. The “% Inhibition at 10 μM (ELISA)” value at ACK1 [1] (hydrochloride) was 69% and 21% and 25%.
For the compound `Cc1ccc(Nc2ncc(Br)c(NCC3CCCO3)n2)cc1F.Cl` (stereo not drawn) [YL7-172-4, 5-Bromo-N2-(3-fluoro-4-methylphenyl)-N4-((tetrahydrofuran-2-yl)methyl)pyrimidine-2,4-diamine hydrochloride], the melting point was 189 °C (dec.). Moreover, the “% Inhibition at 10 μM (ELISA)” value on ACK1 [1] (hydrochloride) was 0% and −12% and 20%.
`Cl.NC(=O)c1ccc(Nc2ncc(Br)c(NCC3CCCO3)n2)cc1` (stereo not drawn) [YL7-172-5, 4-(5-Bromo-4-((tetrahydrofuran-2-yl)methylamino)pyrimidin-2-ylamino)benzamide hydrochloride]: the melting point was 251 °C (dec.). Moreover, the “% Inhibition at 10 μM (ELISA)” value on ACK1 [1] (hydrochloride) is 31% and 77% and 82%.
Consider `Cl.Fc1cc(Nc2ncc(Br)c(NCC3CCCO3)n2)ccc1Cl` (stereo not drawn) [YL7-172-7, 5-Bromo-N2-(4-chloro-3-fluorophenyl)-N4-((tetrahydrofuran-2-yl)methyl)pyrimidine-2,4-diamine hydrochloride], for which the melting point is 172 °C (dec.). Further, the “% Inhibition at 10 μM (ELISA)” value on ACK1 [1] (hydrochloride) was 0% and 5% and 3%.
For the compound `COc1ccc(Nc2ncc(Br)c(NCC3CCCO3)n2)cc1F.Cl` (stereo not drawn) [YL7-172-8, 5-Bromo-N2-(3-fluoro-4-methoxyphenyl)-N4-((tetrahydrofuran-2-yl)methyl)pyrimidine-2,4-diamine hydrochloride], the melting point was 169 °C (dec.). Also, the “% Inhibition at 10 μM (ELISA)” value at ACK1 [1] (hydrochloride) was 14% and 35% and 41%.
With `Cl.Oc1ccc(Nc2nc(NCC3CCCO3)c3ccccc3n2)cc1F` (stereo not drawn) [YL8-001, 2-Fluoro-4-(4-((tetrahydrofuran-2-yl)methylamino)quinazolin-2-ylamino)phenol hydrochloride], the melting point was 144 °C (dec.). Moreover, the “% Inhibition at 10 μM (ELISA)” value on ACK1 [1] (hydrochloride) is 4% and 10% and −6%.
As for `Cl.O=C(O)c1cc(Nc2ncc(Br)c(NCC3CCCO3)n2)ccc1O` (stereo not drawn) [YL8-003-1, 5-(5-Bromo-4-((tetrahydrofuran-2-yl)methylamino)pyrimidin-2-ylamino)-2-hydroxybenzoic acid hydrochloride], the melting point is 211 °C (dec.). In addition, at ACK1 [1] (hydrochloride), the “% Inhibition at 10 μM (ELISA)” value is 28% and 16%. In addition, the inhibition at 10 µM on ACK1 [1] is 27%.
Consider `Cl.NS(=O)(=O)c1ccc(Nc2ncc(Br)c(NCC3CCCO3)n2)cc1` (stereo not drawn) [YL8-003-3, 4-(5-Bromo-4-((tetrahydrofuran-2-yl)methylamino)pyrimidin-2-ylamino)benzenesulfonamide hydrochloride], for which the melting point was 214 °C (dec.). At ACK1 [1] (hydrochloride), the “% Inhibition at 10 μM (ELISA)” value is 68% and 63%. For the same compound, the inhibition at 10 µM on ACK1 [1] is 56%.
As for `Cl.O=C(Nc1c(F)cccc1Cl)c1cnc(Nc2ccc(O)c(Cl)c2)nc1NCC1CCCO1` (stereo not drawn) [YL8-009-1, 2-(3-Chloro-4-hydroxyphenylamino)-N-(2-chloro-6-fluorophenyl)-4-((tetrahydrofuran-2-yl)methylamino)pyrimidine-5-carboxamide hydrochloride], the melting point is 158 °C (dec.). Also, on ACK1 [1] (hydrochloride), the “% Inhibition at 10 μM (ELISA)” value was 42% and 48%. Further, the inhibition at 10 µM at ACK1 [1] amounted to 41%.
As for `Cl.O=C(O)c1cc(Nc2ncc(C(=O)Nc3c(F)cccc3Cl)c(NCC3CCCO3)n2)ccc1O` (stereo not drawn) [YL8-009-2, 5-(5-(2-Chloro-6-fluorophenylcarbamoyl)-4-((tetrahydrofuran-2-yl)methylamino)pyrimidin-2-ylamino)-2-hydroxybenzoic acid hydrochloride], the melting point is 298 °C (dec.). Further, at ACK1 [1] (hydrochloride), the “% Inhibition at 10 μM (ELISA)” value is 40% and 55%. For the same compound, the inhibition at 10 µM on ACK1 [1] worked out at 44%.
For the compound `CC(C)(C)OC(=O)N1CCN(c2ccc(Nc3ncc(Br)c(NCC4CCCO4)n3)cc2)CC1.Cl` (stereo not drawn) [YL9-157, tert-Butyl4-(4-(5-bromo-4-((tetrahydrofuran-2-yl)methylamino)pyrimidin-2-ylamino)phenyl)piperazine-1-carboxylate hydrochloride], the melting point was 124 °C (dec.). Besides, at ACK1 [1] (hydrochloride), the “% Inhibition at 10 μM (ELISA)” value turned out to be 46%. In addition, the inhibition at 10 µM at ACK1 [1] came to 47%.
Regarding `CC(C)(C)OC(=O)N1CCN(c2ccc(Nc3ncc(C(=O)Nc4c(F)cccc4Cl)c(NCC4CCCO4)n3)cc2)CC1.Cl` (stereo not drawn) [YL9-161, tert-Butyl4-(4-(5-(2-chloro-6-fluorophenylcarbamoyl)-4-((tetrahydrofuran-2-yl)methylamino)pyrimidin-2-ylamino)phenyl)piperazine-1-carboxylate hydrochloride], the melting point lay in the range of 184 to 186 °C. Moreover, at ACK1 [1] (hydrochloride), the “% Inhibition at 10 μM (ELISA)” value amounted to 31%. At ACK1 [1], the inhibition at 10 µM was 28%.
Consider `Brc1cnc(Nc2ccc(N3CCNCC3)cc2)nc1NCC1CCCO1` (stereo not drawn) [YL9-167, 5-Bromo-N2-(4-(piperazin-1-yl)phenyl)-N4-((tetrahydrofuran-2-yl)methyl)pyrimidine-2,4-diamine TFA salt], for which, on ACK1 [2] (Table 3, 10-dose, 3-fold dilution from 10 μM, 10 μM ATP, read-out: Compound IC50* (M): ACK1), the IC50 is 9.47e-08 M.
